Source: PubChem BioAssay (NCI)
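GI50: concentration for 50% inhibition of growth. TGI denotes the concentration required for complete inhibition of growth.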

Columns and labels:
Test in all cases: NCI anticancer screen, dose series, 384-well format
SR leukemia = test system: SR leukemia
SK-OV-3 ovarian = test system: SK-OV-3 ovarian
OVCAR-3 ovarian = test system: OVCAR-3 ovarian
HS 578T breast = test system: HS 578T breast
HCT-15 colon = test system: HCT-15 colon
HCC-2998 colon = test system: HCC-2998 colon
RXF 393 renal = test system: RXF 393 renal
OVCAR-4 ovarian = test system: OVCAR-4 ovarian
CCRF-CEM leukemia = test system: CCRF-CEM leukemia
SK-MEL-2 melanoma = test system: SK-MEL-2 melanoma
CAKI-1 renal = test system: CAKI-1 renal
RPMI-8226 leukemia = test system: RPMI-8226 leukemia
OVCAR-8 ovarian = test system: OVCAR-8 ovarian

`CS(=O)(=O)c1ccc(-c2cnc(NCc3ccco3)n3cnnc23)cc1` was tested, and the GI50 (SR leukemia) was greater than 100 µM, the TGI (SR leukemia) was greater than 100 µM and the GI50 (SK-OV-3 ovarian) was greater than 100 µM. The TGI (SK-OV-3 ovarian) was greater than 100 µM, the GI50 (OVCAR-3 ovarian) was greater than 100 µM and the TGI (OVCAR-3 ovarian) was greater than 100 µM. The GI50 (HS 578T breast) was greater than 100 µM, the TGI (HS 578T breast) was greater than 100 µM and the GI50 (HCT-15 colon) was greater than 100 µM. It also gave a TGI (HCT-15 colon) greater than 100 µM, a GI50 (HCC-2998 colon) greater than 100 µM and a TGI (HCC-2998 colon) greater than 100 µM. It also gave a GI50 (RXF 393 renal) greater than 76.7 µM, a TGI (RXF 393 renal) greater than 100 µM and a GI50 (OVCAR-4 ovarian) greater than 100 µM. For the same molecule, the TGI (OVCAR-4 ovarian) was greater than 100 µM, the GI50 (CCRF-CEM leukemia) was greater than 85.5 µM and the TGI (CCRF-CEM leukemia) was greater than 100 µM. For the same molecule, the GI50 (SK-MEL-2 melanoma) was greater than 100 µM, the TGI (SK-MEL-2 melanoma) was greater than 100 µM and the GI50 (CAKI-1 renal) was greater than 100 µM. For the same molecule, the TGI (CAKI-1 renal) was greater than 100 µM, the GI50 (RPMI-8226 leukemia) was 6.1 µM and the TGI (RPMI-8226 leukemia) was greater than 33.7 µM. The GI50 (OVCAR-8 ovarian) was greater than 100 µM and the TGI (OVCAR-8 ovarian) was greater than 100 µM.
